Results taken from US10654832B2, “3-(benzoimidazol-2-YL)-indazole inhibitors of the Wnt signaling pathway and therapeutic uses thereof” (Samumed, LLC, priority 2013, dated 2020).

What follows are molecules tested on Wnt activity (wnt-responsive SP5 promoter luciferase reporter in SW480 cells) (assay: Wnt activity reporter assay (SP5 promoter-firefly luciferase in SW480 cells)). Conditions: Homo sapiens; SW480 colon cancer cells with SP5 promoter luciferase reporter; 24 h after compound addition; half-log dilutions, three micromolar top concentration; normalized to DMSO; read-out: Wnt inhibition.
Assay type: cell-based
Outline: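 SW480 cells (APC-mutant) stably carried a lentiviral SP5-promoter (eight TCF/LEF sites) firefly luciferase reporter. Signals were normalized to DMSO-only cells to derive IC50.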
For `CN(C)Cc1cncc(-c2ccc3[nH]nc(-c4nc5c(-c6cccc(F)c6)cccc5[nH]4)c3c2)c1` [Compound 13, 1-(5-(3-(4-(3-Fluorophenyl)-1H-benzo[d]imidazol-2-yl)-1H-indazol-5-yl)pyridin-3-yl)-N,N-dimethylmethanamine], the IC50 was 11 nM.
`CC(C)Nc1cncc(-c2ccc3[nH]nc(-c4nc5c(-c6ccncc6)cccc5[nH]4)c3c2)c1` [Compound 108, N-Isopropyl-5-(3-(4-(pyridin-4-yl)-1H-benzo[d]imidazol-2-yl)-1H-indazol-5-yl)pyridin-3-amine] showed an IC50 of 16 nM.
In the case of `c1cc(-c2ccoc2)c2nc(-c3n[nH]c4ccc(-c5cncc(CN6CCCCC6)c5)cc34)[nH]c2c1` [Compound 279, 3-(4-(Furan-3-yl)-1H-benzo[d]imidazol-2-yl)-5-(5-(piperidin-1-ylmethyl)pyridin-3-yl)-1H-indazole], the IC50 is reported as 418 nM.
`O=C(Nc1cncc(-c2ccc3[nH]nc(-c4nc5c(-c6ccc(F)cc6)cccc5[nH]4)c3c2)c1)C1CCCCC1` [Compound 46, N-(5-(3-(4-(4-Fluorophenyl)-1H-benzo[d]imidazol-2-yl)-1H-indazol-5-yl)pyridin-3-yl)cyclohexanecarboxamide] was tested, and the IC50 was 225 nM.
`Cc1cn(-c2cccc3[nH]c(-c4n[nH]c5ccc(-c6cncc(NC(=O)C7CCCC7)c6)cc45)nc23)cn1` [Compound 189, N-(5-(3-(4-(4-Methyl-1H-imidazol-1-yl)-1H-benzo[d]imidazol-2-yl)-1H-indazol-5-yl)pyridin-3-yl)cyclopentanecarboxamide] was tested, and the IC50 was 13 nM.
In the case of `O=C(Nc1cncc(-c2ccc3[nH]nc(-c4nc5c(-c6ccccn6)cccc5[nH]4)c3c2)c1)C1CCCCC1` [Compound 142, N-(5-(3-(4-(Pyridin-2-yl)-1H-benzo[d]imidazol-2-yl)-1H-indazol-5-yl)pyridin-3-yl)cyclohexanecarboxamide], the IC50 is reported as 155 nM.
`CCCC(=O)Nc1cncc(-c2ccc3[nH]nc(-c4nc5c(-c6ccc(F)cc6)cccc5[nH]4)c3c2)c1` [Compound 41, N-(5-(3-(4-(4-Fluorophenyl)-1H-benzo[d]imidazol-2-yl)-1H-indazol-5-yl)pyridin-3-yl)butyramide] gave an IC50 of 15 nM.
In the case of `O=C(Nc1cncc(-c2ccc3[nH]nc(-c4nc5ccccc5[nH]4)c3c2)c1)C1CC1` [Compound 235, N-(5-(3-(1H-Benzo[d]imidazol-2-yl)-1H-indazol-5-yl)pyridin-3-yl) cyclopropanecarboxamide], the IC50 is reported as 25 nM.
`CC(C)C(=O)Nc1cncc(-c2ccc3[nH]nc(-c4nc5c(-c6ccsc6)cccc5[nH]4)c3c2)c1` [Compound 249, N-(5-(3-(4-(Thiophen-3-yl)-1H-benzo[d]imidazol-2-yl)-1H-indazol-5-yl)pyridin-3-yl)isobutyramide] was tested, and the IC50 was 13 nM.
Work on `CC(C)(C)CC(=O)Nc1cncc(-c2ccc3[nH]nc(-c4nc5c(-c6cccnc6)cccc5[nH]4)c3c2)c1` [Compound 88, 3,3-Dimethyl-N-(5-(3-(4-(pyridin-3-yl)-1H-benzo[d]imidazol-2-yl)-1H-indazol-5-yl)pyridin-3-yl)butanamide] yielded an IC50 of 135 nM.
